Data published in patent US20020045780A1, “Biologically active spermidine analogues, pharmaceutical compositions and methods of treatment” (priority 1997, published 2002).
Like-named read-outs stand apart in the source and are kept apart here.

Key:
L1210 cells [1] = conditions: cited from earlier work
L1210 cells [2] = assay: Metabolic transformation of polyamine analogues by L1210 cells; format: in vitro ADME, murine; conditions: L1210 cells, data not shown, concentration not given
Method: The cells were washed twice with cold RPMI-1640, and the pellet was treated with 0.6 N HClO4 (1 ml/10^7 cells). Polyamine contents of the perchloric acid extracts were quantitated by HPLC of the DANSYL derivatives [Bergeron et al, J. Med. Chem., Vol. 37, supra].

[3] = tested on: S-adenosylmethionine decarboxylase (AdoMetDC); conditions: L1210, 1 μM at 6 hours; cited from earlier work
[4] = tested on: spermidine/spermine acetyltransferase (SSAT); conditions: L1210, 2 μM at 48 hours (tetraamine analogues); cited from earlier work
L1210 cells [5] = conditions: 48 hours, cited from earlier work; for Analogue, corresponding tetraamine (in parentheses): intracellular amount
[6] = molecular target: polyamine transport apparatus; conditions: inhibition of spermidine transport, L1210; read-out: Ki, corresponding tetraamine (in parentheses); cited from earlier work
[7] = L1210, 48 hour exposure, read-out: IC50 48 hour, corresponding tetraamine (in parentheses)
[8] = L1210, 96 hour exposure, read-out: IC50 96 hour, corresponding tetraamine (in parentheses)

Row | SMILES | IC50 (L1210 cells [1]; [7]) [µM] | IC50 (L1210 cells [1]; [8]) [µM] | N-dealkylation (result in words) (L1210 cells [2]) | AdoMetDC activity, corresponding tetraamine (in parentheses) [3] | SSAT activity, corresponding tetraamine (in parentheses) [4] | Put, corresponding tetraamine (in parentheses) (L1210 cells [5]; % of untreated control, 500 μM) | Spd, corresponding tetraamine (in parentheses) (L1210 cells [5]; % of untreated control, 500 μM) | Spm, corresponding tetraamine (in parentheses) (L1210 cells [5]; % of untreated control, 500 μM) | Analogue, corresponding tetraamine (in parentheses) (L1210 cells [5]; 100 μM) | Analogue, corresponding tetraamine (in parentheses) (L1210 cells [5]; 500 μM) | Ki [6] [µM]
1 | CNCCCNCCCNCCCNC [DMNSPM] | > 100 | 2.5 | no evidence of N-dealkylation | 49% of untreated control | 200% of untreated control | (0) % | (3) % | (27) % | (2.14) nmol/10^6 cells | (1.84) nmol/10^6 cells | 5.6
2 | CNCCCNCCCCNCCCNC [DMSPM] | > 100 | 0.75 | no evidence of N-dealkylation | 40% of untreated control | 300% of untreated control |  |  |  | (1.26) nmol/10^6 cells | (1.24) nmol/10^6 cells | 1.1
3 | CCNCCCNCCCNCCCN [MENSPM] | > 100 | 2.5 |  | 33% of untreated control | 410% of untreated control |  |  |  |  |  | 7.7
